Test results from US7470669B2, “Isolated polypeptide comprising a leptin fragment” (Serono Genetics Institute, S.A., priority 1999, dated 2008).

Tests used:
db^Pas/db^Pas mice = assay: Postprandial plasma TG response after high-fat test meal in db^Pas/db^Pas mice; assay type: in vivo, mouse
Procedure: FIGS. 1A and 1B show the effect of leptin on postprandial plasma TG response in db/db and db^Pas/db^Pas mice. Overnight-fasted db/db (A), db^Pas/db^Pas (B) mice were gavage-fed a high-fat test meal and immediately injected intravenously (db/db) or intraperitoneally (db^Pas/db^Pas) with saline (open symbols) or 50 μg mouse recombinant leptin (closed symbols). At the indicated times, blood was collected from the tail (A) or orbital (B) vein, plasma was separated by centrifugation, and plasma TG concentrations were determined using an enzymatic kit. Each point represents the mean±SEM (db/db: saline, n=4, leptin, n=3; db^Pas/db^Pas: saline, n=6, leptin, n=7). The average plasma lipid response in 10 control C57BL6 mice is shown as a dotted line in both A and B. In a separate experiment, shown as an inset for each strain of mice, overnight fasted db/db (●) or db^Pas/db^Pas (▪) mice were gavage-fed the test meal and immediately injected intravenously with increasing concentrations of leptin. The plasma lipid response was then measured as in A and B. The area under the response curve (AUC) was then calculated using a triangulation method on Microsoft Excel between 0 and 4 hr (mg TG·h/mL). Values are presented as % of control value (test meal alone obtained in A or B). Each point represents the mean of at least 3 mice.
FIGS. 7A and 7B show a comparison of the effect of human and mouse leptin on LSR activity in rat hepatocytes and on postprandial increase in plasma TG in db^Pas/db^Pas mice. For FIG. 7A, primary cultures of rat hepatocytes were incubated 30 min at 37° C. without (open bar) or with 10 ng/mL recombinant human (solid bar) or mouse (hatched bar) leptin in Buffer A. Oleate (0.5 mM) and ^125I-LDL (20 μg/mL) were added and the cells were incubated 2 h at 37° C. The media were removed and were analyzed for TCA-soluble degradation products. The mean of duplicate determinations is shown. For FIG. 7B, db^Pas/db^Pas mice were given a test meal as previously described, followed immediately by injection i.p. of saline (open bar, n=4), human leptin (1 μg/animal; solid bar, n=3) or mouse leptin (0.25 μg/animal; hatched bar; n=3). The data represent the difference in TG concentrations measured at t=0 and the average of the concentrations at 3 and 4 hours. Results are shown as mean±SEM.
Mice that were fasted for 2-3 hours were gavage-fed 300 μL of a test meal consisting of 60% fat (37% saturated, 27% mono-, and 36% polyunsaturated fatty acids), 20% protein and 20% carbohydrate, and providing 56 kcal of energy/kg (1.5 g butter, 1.5 g sunflower oil, 2.5 g nonfat dry milk, 2.5 g sucrose and 3 ml water). […] TG concentrations were determined using a commercially available enzymatic kit with controls included in each assay (Precinorm L, Roche-Boehringer Mannheim; Lyotrol N, BioMérieux).

LSR mRNA = assay: Northern blot of LSR mRNA in leptin-treated rat hepatocytes; assay type: cell-based; conditions: rat hepatocytes after 30 min leptin treatment
Procedure: Northern blots were performed as described previously using as a probe clone 18251 described above (Yen F. T., Masson M., Clossais-Besnard N., Andre P., Grosset J. M., Bougueleret L., Dumas J. B., Guerassimenko, O., and Bihain B. E. (1999). J Biol Chem 274, 13390-13398).

ob/ob mice = assay: Food intake of ob/ob mice under daily subcutaneous injections; assay type: in vivo, mouse; conditions: daily subcutaneous injections of 25 μg over a 12 day period
Procedure: A synthetic peptide with a sequence identical to that of mouse leptin between residues 117-138 was obtained and found to stimulate the oleate-induced binding of ^125I-LDL in primary cultures of rat hepatocytes (FIG. 11B, insert). Daily subcutaneous injections of 25 μg of this synthetic leptin peptide to ob/ob mice had no effect on the food intake over a 12 day period (7.6±0.4 g/day in ob/ob receiving saline and 6.7±0.3 g/day in ob/ob receiving peptide; n=4, NS). Daily injections of 25 μg of mouse leptin caused a reduction of food intake to 4.7±0.5 g/day (n=3; p<0.003 versus controls).

Substance	area under the TG curve (db^Pas/db^Pas mice; 250 ng leptin per animal, AUC 0-4 h)	decrease of the area under the postprandial TG curve (db^Pas/db^Pas mice; 500 ng leptin per animal (maximum effect)) [%]	amplitude of the triglyceride response (db^Pas/db^Pas mice; single bolus 50 μg mouse recombinant leptin i.p. at time of test meal)	LSR mRNA levels (Northern blots) (LSR mRNA)	food intake (ob/ob mice) [g/day]
leptin: plasma protein of 16 kDa produced by adipocytes; recombinant human or mouse leptin, species depends on the experiment	significant reduction	> 65	decreased the amplitude of the triglyceride response	did not increase mRNA levels significantly	
CSLPQTSGLQKPESLDGVLEAS (listed as Mus musculus) [mouse peptide, mouse leptin fragment residues 117-138, 22-mer]					6.7 ± 0.3
